Read-outs that look alike come from different tables or passages of the source.
Assays:
[1] = target: Protein Tyrosine Kinase, Insulin Receptor (Homo sapiens, UniProt P06213); test: Secondary toxicity screen: Insulin Receptor kinase; assay type: biochemical
[2] = target: Protein Tyrosine Kinase, FGFR2 (Homo sapiens, UniProt P21802); test: Secondary toxicity screen: FGFR2; assay type: biochemical
Protein Tyrosine Kinase, = test: Secondary toxicity screen: Protein Tyrosine Kinase (name not given); assay type: biochemical
[3] = pH 8
Procedure: Quercetin-3′-O-phosphate is dissolved in water at about pH 8.
Fisetin-3′-O-phosphate is dissolved in water at about pH 8.
Quercetin-3′-O-methylphosphonate (Compound 2) is dissolved in water at about pH 8.

[4] = system: ATPase, Na+/K+, Heart, Pig; test: Secondary toxicity screen (MDS Pharma Services): ATPase, Na+/K+; assay type: biochemical
[5] = target: UDP Glucuronosyltransferase, UGT1A1 (Homo sapiens, UniProt P22309)
[6] = target: Protein Tyrosine Kinase, ZA70 (ZAP-70) (Homo sapiens, UniProt P43403); test: Secondary toxicity screen: ZAP-70; assay type: biochemical
AdrenergicA2A = target: T1, AdrenergicA2A (Homo sapiens, UniProt P08913); test: AdrenergicA2A GTPγS functional assay; assay type: biochemical
T1 sequence (P08913 1-465): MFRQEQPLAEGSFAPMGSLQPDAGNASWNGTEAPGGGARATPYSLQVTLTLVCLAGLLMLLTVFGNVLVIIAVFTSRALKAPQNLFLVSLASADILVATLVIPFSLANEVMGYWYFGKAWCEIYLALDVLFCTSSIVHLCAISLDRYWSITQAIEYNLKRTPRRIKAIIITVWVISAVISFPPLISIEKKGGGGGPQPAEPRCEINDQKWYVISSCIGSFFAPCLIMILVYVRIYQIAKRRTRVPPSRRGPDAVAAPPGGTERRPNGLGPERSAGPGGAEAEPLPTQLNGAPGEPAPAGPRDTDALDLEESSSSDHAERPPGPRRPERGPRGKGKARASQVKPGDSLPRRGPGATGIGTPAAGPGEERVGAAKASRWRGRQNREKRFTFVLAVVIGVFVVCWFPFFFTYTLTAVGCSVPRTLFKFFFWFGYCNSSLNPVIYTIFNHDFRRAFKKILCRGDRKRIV
Procedure: (§1) The compound is additionally tested in AdenosineA1, AdrenergicA2A, DopamineD25, Histamine H1-, and μ-Opiate GTPγS functional assays using a concentration of 10 μM.
(§2) The compound may be additionally tested in AdenosineA1, AdrenergicA2A, DopamineD25, Histamine H1-, and μ-Opiate GTPγS functional assays using a concentration of 10 μM.
(§3) The compound can be additionally tested in AdenosineA1, AdrenergicA2A, DopamineD25, Histamine H1-, and μ-Opiate GTPγS functional assays using a concentration of 10 μM.

AdenosineA1 [7] = target: T2, AdenosineA1 (Homo sapiens, UniProt P30542); test: AdenosineA1 GTPγS functional assay; assay type: biochemical
T2 sequence (P30542 1-326): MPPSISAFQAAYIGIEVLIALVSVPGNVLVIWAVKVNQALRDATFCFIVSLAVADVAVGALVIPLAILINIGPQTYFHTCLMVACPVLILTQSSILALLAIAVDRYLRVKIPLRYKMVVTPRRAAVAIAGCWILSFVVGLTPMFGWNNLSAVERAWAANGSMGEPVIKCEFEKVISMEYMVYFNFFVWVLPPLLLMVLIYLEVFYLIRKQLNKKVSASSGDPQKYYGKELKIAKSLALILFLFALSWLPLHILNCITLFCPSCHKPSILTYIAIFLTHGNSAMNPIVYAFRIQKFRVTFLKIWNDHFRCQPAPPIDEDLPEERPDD
Procedure: as §1, §2, §3

[8] = target: Peripheral Benzodiazepine Receptor (PBR) (Homo sapiens, UniProt P30536); test: Secondary toxicity screen: Peripheral Benzodiazepine Receptor; assay type: binding
[9] = target: Protein Tyrosine Kinase, FGFR1 (Homo sapiens, UniProt P11362); test: Secondary toxicity screen: FGFR1; assay type: biochemical
[10] = target: Serotonin (5-Hydroxytryptamine) 5-HT1A (Homo sapiens, UniProt P08908); test: Secondary toxicity screen: 5-HT1A; assay type: binding
Dopamine D47 = test: Secondary toxicity screen: Dopamine D47; assay type: binding
[11] = target: Nitric Oxide Synthase, Endothelial (eNOS) (Homo sapiens, UniProt P29474); test: Secondary toxicity screen: eNOS; assay type: biochemical
AdenosineA1 [12] = target: T2, AdenosineA1; test: Secondary toxicity screen: Adenosine A1; assay type: binding
[13] = system: Transporter, Monoamine rabbit; test: Secondary toxicity screen: Transporter, Monoamine; assay type: binding
Adrenergic α2A = Adrenergic α2A (Homo sapiens, UniProt P08913); test: Secondary toxicity screen: Adrenergic α2A; assay type: binding
[14] = target: UGT1A1 (UDP glucuronosyltransferase) (Homo sapiens, UniProt P22309); test: in vitro
[15] = 10 uM, read-out: percent inhibition at 10 μM

Chain of Protein Tyrosine Kinase, ZA70 (ZAP-70) (P43403 whole entry, species assumed): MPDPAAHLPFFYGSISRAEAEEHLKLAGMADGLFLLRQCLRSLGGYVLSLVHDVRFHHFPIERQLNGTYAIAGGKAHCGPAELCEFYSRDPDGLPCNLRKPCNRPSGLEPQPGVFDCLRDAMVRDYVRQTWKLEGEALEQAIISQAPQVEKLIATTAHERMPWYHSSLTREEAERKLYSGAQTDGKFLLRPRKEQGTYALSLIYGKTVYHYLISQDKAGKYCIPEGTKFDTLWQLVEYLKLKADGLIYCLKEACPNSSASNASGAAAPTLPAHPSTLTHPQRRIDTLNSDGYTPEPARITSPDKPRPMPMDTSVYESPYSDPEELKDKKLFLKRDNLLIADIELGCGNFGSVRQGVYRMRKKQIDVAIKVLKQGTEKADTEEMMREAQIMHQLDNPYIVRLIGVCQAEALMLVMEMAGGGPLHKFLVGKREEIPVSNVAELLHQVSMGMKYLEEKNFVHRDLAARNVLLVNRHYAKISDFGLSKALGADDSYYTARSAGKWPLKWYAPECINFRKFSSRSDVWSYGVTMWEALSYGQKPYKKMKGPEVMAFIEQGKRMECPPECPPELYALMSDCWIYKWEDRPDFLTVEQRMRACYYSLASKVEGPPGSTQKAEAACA
Chain of Serotonin (5-Hydroxytryptamine) 5-HT1A (P08908 whole entry): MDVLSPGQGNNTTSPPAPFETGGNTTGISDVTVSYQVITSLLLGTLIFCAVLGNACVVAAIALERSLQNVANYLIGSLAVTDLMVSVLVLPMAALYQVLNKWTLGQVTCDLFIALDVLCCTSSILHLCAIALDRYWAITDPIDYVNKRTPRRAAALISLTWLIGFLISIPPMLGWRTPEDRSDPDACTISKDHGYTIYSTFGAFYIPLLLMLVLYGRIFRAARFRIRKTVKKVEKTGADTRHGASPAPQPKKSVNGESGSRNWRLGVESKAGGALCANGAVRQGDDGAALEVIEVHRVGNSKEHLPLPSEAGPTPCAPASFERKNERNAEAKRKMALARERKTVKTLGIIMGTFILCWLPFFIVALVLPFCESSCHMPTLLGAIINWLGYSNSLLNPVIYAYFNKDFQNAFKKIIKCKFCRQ
Chain of Protein Tyrosine Kinase, Insulin Receptor (P06213 28-1382): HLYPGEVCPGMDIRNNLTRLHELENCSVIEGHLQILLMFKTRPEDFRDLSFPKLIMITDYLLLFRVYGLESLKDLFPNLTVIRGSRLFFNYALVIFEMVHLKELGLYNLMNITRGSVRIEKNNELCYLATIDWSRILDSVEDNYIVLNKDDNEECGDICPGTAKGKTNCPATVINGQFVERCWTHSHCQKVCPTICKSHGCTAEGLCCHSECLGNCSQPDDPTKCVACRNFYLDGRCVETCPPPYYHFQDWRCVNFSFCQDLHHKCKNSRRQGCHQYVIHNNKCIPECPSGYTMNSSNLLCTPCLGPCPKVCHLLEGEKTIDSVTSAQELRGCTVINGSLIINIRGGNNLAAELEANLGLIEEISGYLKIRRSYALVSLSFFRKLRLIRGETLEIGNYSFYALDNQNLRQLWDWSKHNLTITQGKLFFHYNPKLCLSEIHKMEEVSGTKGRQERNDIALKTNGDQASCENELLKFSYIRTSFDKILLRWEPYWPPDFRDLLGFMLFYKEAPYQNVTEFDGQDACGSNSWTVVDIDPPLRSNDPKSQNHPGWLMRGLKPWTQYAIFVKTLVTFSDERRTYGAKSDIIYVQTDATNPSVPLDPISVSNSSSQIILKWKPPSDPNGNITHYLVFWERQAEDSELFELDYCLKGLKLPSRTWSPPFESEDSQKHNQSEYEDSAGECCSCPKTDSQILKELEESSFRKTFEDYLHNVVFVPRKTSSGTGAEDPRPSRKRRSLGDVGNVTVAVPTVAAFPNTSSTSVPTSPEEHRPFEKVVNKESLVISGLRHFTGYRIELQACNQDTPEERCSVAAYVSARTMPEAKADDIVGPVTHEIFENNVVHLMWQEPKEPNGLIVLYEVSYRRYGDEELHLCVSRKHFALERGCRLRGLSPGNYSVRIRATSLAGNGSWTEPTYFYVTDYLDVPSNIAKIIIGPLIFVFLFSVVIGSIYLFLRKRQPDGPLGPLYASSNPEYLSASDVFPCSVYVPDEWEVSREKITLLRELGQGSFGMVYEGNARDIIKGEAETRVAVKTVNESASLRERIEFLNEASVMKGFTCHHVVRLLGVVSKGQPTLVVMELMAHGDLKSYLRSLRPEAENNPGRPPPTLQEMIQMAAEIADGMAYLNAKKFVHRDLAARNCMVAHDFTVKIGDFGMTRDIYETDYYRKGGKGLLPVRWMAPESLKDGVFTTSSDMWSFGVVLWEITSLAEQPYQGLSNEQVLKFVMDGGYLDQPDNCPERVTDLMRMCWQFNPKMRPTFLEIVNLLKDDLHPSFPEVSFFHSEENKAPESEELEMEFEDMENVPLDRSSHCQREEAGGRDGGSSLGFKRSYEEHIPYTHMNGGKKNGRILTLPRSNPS
Chain of Protein Tyrosine Kinase, FGFR1 (P11362 22-822): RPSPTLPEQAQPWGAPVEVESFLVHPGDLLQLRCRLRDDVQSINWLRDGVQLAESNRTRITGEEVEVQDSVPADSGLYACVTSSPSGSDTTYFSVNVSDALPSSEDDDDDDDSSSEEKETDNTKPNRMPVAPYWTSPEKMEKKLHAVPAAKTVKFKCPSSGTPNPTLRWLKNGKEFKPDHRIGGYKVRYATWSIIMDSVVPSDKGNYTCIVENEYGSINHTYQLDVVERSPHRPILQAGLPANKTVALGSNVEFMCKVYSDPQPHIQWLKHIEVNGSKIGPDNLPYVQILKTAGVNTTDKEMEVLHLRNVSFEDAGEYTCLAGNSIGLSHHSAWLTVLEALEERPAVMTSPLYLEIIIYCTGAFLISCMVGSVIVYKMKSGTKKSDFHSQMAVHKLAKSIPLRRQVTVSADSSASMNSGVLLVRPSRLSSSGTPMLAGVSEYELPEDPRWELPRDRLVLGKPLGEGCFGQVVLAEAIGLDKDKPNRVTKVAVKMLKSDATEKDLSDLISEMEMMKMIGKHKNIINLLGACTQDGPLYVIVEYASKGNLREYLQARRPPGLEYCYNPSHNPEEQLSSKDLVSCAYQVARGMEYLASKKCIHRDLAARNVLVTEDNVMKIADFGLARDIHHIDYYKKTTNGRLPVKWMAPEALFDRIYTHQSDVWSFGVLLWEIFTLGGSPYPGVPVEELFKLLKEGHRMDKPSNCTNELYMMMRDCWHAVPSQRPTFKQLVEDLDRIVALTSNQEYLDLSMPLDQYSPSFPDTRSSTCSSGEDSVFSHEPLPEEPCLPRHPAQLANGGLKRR
Chain of Protein Tyrosine Kinase, FGFR2 (P21802 22-821): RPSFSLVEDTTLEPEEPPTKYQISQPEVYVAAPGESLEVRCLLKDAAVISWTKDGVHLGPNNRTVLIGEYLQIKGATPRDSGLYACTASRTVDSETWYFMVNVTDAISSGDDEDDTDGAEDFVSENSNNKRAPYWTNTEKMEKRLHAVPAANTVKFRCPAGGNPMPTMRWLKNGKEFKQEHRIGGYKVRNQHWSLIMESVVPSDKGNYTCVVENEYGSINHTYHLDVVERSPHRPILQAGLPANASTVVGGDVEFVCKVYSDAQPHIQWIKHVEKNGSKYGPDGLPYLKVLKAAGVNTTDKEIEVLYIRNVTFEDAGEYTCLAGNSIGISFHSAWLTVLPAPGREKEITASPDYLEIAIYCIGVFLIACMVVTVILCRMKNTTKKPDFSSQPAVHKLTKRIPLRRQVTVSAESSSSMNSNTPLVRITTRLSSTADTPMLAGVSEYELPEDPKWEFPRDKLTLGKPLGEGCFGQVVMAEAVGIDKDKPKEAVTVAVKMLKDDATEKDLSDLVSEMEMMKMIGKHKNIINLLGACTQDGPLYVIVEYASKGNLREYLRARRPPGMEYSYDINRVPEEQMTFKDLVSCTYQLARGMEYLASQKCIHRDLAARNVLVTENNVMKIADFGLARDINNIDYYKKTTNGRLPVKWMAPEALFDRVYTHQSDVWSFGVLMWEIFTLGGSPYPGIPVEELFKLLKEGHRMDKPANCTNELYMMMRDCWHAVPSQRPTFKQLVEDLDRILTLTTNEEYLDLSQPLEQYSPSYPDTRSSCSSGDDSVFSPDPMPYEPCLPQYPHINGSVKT
Chain of Peripheral Benzodiazepine Receptor (PBR) (P30536 whole entry, species assumed): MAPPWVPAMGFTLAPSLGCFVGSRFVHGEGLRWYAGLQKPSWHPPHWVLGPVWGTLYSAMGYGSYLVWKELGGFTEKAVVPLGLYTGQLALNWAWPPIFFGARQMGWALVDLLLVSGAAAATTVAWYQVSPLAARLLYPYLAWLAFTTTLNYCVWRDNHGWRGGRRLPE
Chain of UDP Glucuronosyltransferase, UGT1A1 (P22309 26-533): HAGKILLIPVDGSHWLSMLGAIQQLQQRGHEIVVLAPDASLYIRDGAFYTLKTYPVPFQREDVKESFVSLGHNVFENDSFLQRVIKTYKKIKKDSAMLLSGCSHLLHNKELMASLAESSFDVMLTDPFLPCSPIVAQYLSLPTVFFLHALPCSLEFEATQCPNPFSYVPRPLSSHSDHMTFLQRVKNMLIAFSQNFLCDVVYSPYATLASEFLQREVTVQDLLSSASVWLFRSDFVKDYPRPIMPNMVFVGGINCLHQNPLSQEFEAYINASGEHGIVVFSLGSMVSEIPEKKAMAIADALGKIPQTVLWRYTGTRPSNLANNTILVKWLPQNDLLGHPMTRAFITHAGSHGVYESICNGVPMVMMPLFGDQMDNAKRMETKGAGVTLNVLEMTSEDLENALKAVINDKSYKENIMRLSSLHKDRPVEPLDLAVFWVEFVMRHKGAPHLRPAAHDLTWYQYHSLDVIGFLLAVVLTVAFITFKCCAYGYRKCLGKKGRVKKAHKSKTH
Chain of UGT1A1 (UDP glucuronosyltransferase) (P22309 26-533): as above

For `O=c1c(O)c(-c2ccc(O)c(OP(=O)(O)O)c2)oc2cc(O)ccc12` [fisetin-3′-O-phosphate, Fisetin-3′-O-phosphate], the “percent inhibition at 10 μM” value [1] was 91%, the “percent inhibition at 10 μM” value [2] was 94% and the “percent inhibition at 10 μM” value (Protein Tyrosine Kinase,) was 82%. The “degradation seen by NMR and HPLC” value [3] was “no degradation”, the “percent inhibition at 10 μM” value [4] was 65% and the “percent inhibition at 10 μM” value [5] was 52%. The “percent inhibition at 10 μM” value [6] was 74%, the “inhibition in the AdrenergicA2A assay” value (AdrenergicA2A) was “marked negative inhibition” and the “antagonist activity in the AdenosineA1 assay” value (AdenosineA1 [7]) was 48%. The “percent inhibition at 10 μM” value [8] was 53%, the “percent inhibition at 10 μM” value [9] was 96% and the “percent inhibition at 10 μM” value [10] was 62%. The “percent inhibition at 10 μM” value (Dopamine D47) was 51%, the “percent inhibition at 10 μM” value [11] was 72% and the “percent inhibition at 10 μM” value (AdenosineA1 [12]) was 50%. The “percent inhibition at 10 μM” value [13] was 68% and the “percent inhibition at 10 μM” value (Adrenergic α2A) was 57%.
In the case of `O=c1c(O)c(-c2ccc(O)c(OP(=O)(O)O)c2)oc2cc(O)cc(O)c12` [quercetin-3′-O-phosphate], the inhibition at 10 µM [1, 15] was 91%, the inhibition at 10 µM [2, 15] was 94% and the “percent inhibition at 10 μM” value (Protein Tyrosine Kinase,; 10 uM) was 82%. The “degradation seen by NMR and HPLC” value [3] was “no degradation”, the “percent inhibition at 10 μM” value ([4]; 10 uM) was 65% and the inhibition at 10 µM [14] was 52%. The inhibition at 10 µM [6, 15] was 74%, the “inhibition in the AdrenergicA2A assay” value (AdrenergicA2A; 10 μM) was “marked negative inhibition” and the “antagonist activity in the AdenosineA1 assay” value (AdenosineA1 [7]; 10 μM) was 48%. It also gave an inhibition at 10 µM [8, 15] of 53%, an inhibition at 10 µM [9, 15] of 96% and an inhibition at 10 µM [10, 15] of 62%. For the same compound, the “percent inhibition at 10 μM” value (Dopamine D47; 10 uM) was 51%, the inhibition at 10 µM [11, 15] was 72% and the inhibition at 10 µM (AdenosineA1 [12]; [15]) was 50%. For the same compound, the “percent inhibition at 10 μM” value ([13]; 10 uM) was 68% and the inhibition at 10 µM (Adrenergic α2A; [15]) was 57%.

Reference: US20100297020A1, “PHOSPHORYLATED AND PHOSPHONATED PYRONE ANALOGS FOR THERAPEUTIC TREATMENT” (Limerick Biopharma, Inc., priority 2008, published 2010)
